Assay results reported in patent US7608604B2, “Antiparasitic agents” (Pfizer Limited, priority 2007, dated 2009).

These compounds were tested on Haemonchus contortus L3 (assay: Haemonchus contortus L3 (HcL3) in vitro test). Conditions: minimum effective dose; exsheathed L3 larvae in vitro, 37° C., observed up to 4 days, n=2.
Assay type: cell-based
Experimental: The Haemonchus contortus L3 (HcL3) test is used to measure the biological activities of the compounds claimed. The assay involves in vitro testing against H. contortus conducted according to the following general procedure.
HcL3 larvae were collected from infected sheep and, after cleaning, stored in water at 12° C. for up to one month. Viable infective larvae were exsheathed using 10% hypochlorite in Glucose Tyrodes balanced salt solution containing antibiotics and resuspended in basal medium (20 g/l bacto-tryptone, 5 g/l yeast extract, 57 g/l glucose, 0.8 g/l di-Potassium hydrogen orthophosphate, 0.8 g/l potassium dihydrogen orthophosphate and […] Hepes with antibiotics). 95 μl worm suspension was added to each well of a 96 well plate.
Test compounds were dissolved in dimethylsulfoxide to give a working stock solution of 20 mg/ml. The stock concentration was diluted 1:10 in Basal media to give 2.0 mg/ml (10% DMSO). 5 μl of the stock compound solution was added to the worm suspension to give a final concentration of 100 μg/ml. Plates were sealed with pressure sensitive film and incubated at 37° C. Observations were made 2 hrs, 24 hrs, 48 hrs, 72 hrs and 4 days post-treatment using an inverted microscope. Activity was recorded if a significant proportion of the worms were dead or adversely affected by the compound when compared to the control well containing 1% DMSO. Compounds were initially tested at 100 μg/ml, wherefrom relevant dose responses (100, 30, 10, 3, 1, 0.3, 0.1 μg/ml) were conducted in duplicate experiments to generate n=2. Data was recorded as minimum effective dose.

In order of rising “in vitro H.c. (L3) MED” value:
1. CC(C#N)(COc1ccc(C#N)cc1C(F)(F)F)NC(=O)c1ccc(S(F)(F)(F)(F)F)cc1 (racemic) [Example 3a, N-{1-Cyano-2-[4-cyano-2-(trifluoromethyl)Phenoxy]-1-methylethyl}-4-(pentafluorothio)benzamide]  1 µg/mL
2. CC(C#N)(COc1cc(C#N)ccc1C(F)(F)F)NC(=O)c1ccc(S(F)(F)(F)(F)F)cc1 (stereo not shown) [Example 1b, N-{1-cyano-2-[5-cyano-2-(trifluoromethyl)phenoxy]-1-methylethyl}-4-(pentafluorothio)benzamide]  1 µg/mL
3. CC(C#N)(COc1cc(C#N)ccc1Cl)NC(=O)c1ccc(S(F)(F)(F)(F)F)cc1 (racemic) [Example 2, N-[2-(2-Chloro-5-cyanophenoxy)-1-cyano-1-methylethyl]-4-(pentafluorothio)benzamide]  1 µg/mL
4. CC(C#N)(COc1c(F)cc(C#N)cc1C(F)(F)F)NC(=O)c1ccc(S(F)(F)(F)(F)F)cc1 (racemic) [Example 4, N-{1-Cyano-2-[4-cyano-2-fluoro-6-(trifluoromethyl)phenoxy]-1-methylethyl}-4-(pentafluorothio)benzamide]  3 µg/mL

`C[C@](C#N)(COc1cc(C#N)ccc1C(F)(F)F)NC(=O)c1ccc(S(F)(F)(F)(F)F)cc1` (single isomer, unassigned) [Example 1c, N-{1-cyano-2-[5-cyano-2-(trifluoromethyl)phenoxy]-1-methylethyl}-4-(pentafluorothio)benzamide] was tested, and the “in vitro H.c. (L3) MED” value was > 30 µg/mL.

Same assay, conditions: minimum effective dose; table of Examples 5-11

In order of falling “H.c. (L3) MED” value:
1. CC(C#N)(COc1cc(C#N)cc(C(F)(F)F)c1)NC(=O)c1ccc(S(F)(F)(F)(F)F)cc1 (stereo not shown) [Example 7, N-{1-cyano-2-[3-cyano-5-(trifluoromethyl)phenoxy]-1-methylethyl}-4-(pentafluorothio)benzamide]  30 µg/mL
2. CC(C#N)(COc1c(F)cc(F)cc1C#N)NC(=O)c1ccc(S(F)(F)(F)(F)F)cc1 (stereo not shown) [Example 8, N-[1-Cyano-2-(2-cyano-4,6-difluorophenoxy)-1-methylethyl]-4-(pentafluorothio)benzamide]  30 µg/mL
3. CC(C#N)(COc1cc(C#N)ccc1C#N)NC(=O)c1ccc(S(F)(F)(F)(F)F)cc1 (stereo not shown) [Example 9, N-[1-Cyano-2-(3,6-dicyanophenoxy)-1-methylethyl]-4-(pentafluorothio)benzamide]  3 µg/mL
4. CC(C#N)(COc1ccc(C#N)c(Cl)c1)NC(=O)c1ccc(S(F)(F)(F)(F)F)cc1 (stereo not shown) [Example 6, N-[2-(3-Chloro-4-cyanophenoxy)-1-cyano-1-methylethyl]-4-(pentafluorothio)benzamide]  3 µg/mL

Same assay, conditions: minimum effective dose; table of Examples 13a-42; 13a/b, 27a/b, 29a/b, 33a/b tested as mixtures of regioisomers

In order of falling “H.c. (L3) MED” value:
1. CC(C#N)(COc1cccc(F)c1Cl)NC(=O)c1ccc(S(F)(F)(F)(F)F)cc1 (stereo not shown) [Example 39, N-[2-(2-Chloro-3-fluorophenoxy)-1-cyano-1-methylethyl]-4-(pentafluorothio)benzamide]  30 µg/mL
2. CC(C#N)(COc1ccccc1C(F)(F)F)NC(=O)c1ccc(S(F)(F)(F)(F)F)cc1 (stereo not shown) [Example 21, N-{1-Cyano-1-methyl-2-[2-(trifluoromethyl)phenoxy]ethyl}-4-(pentafluorothio)benzamide]  30 µg/mL
3. N-[2-(4-Chlorophenoxy)-1-cyano-1-methylethyl]-(pentafluorothio)benzamide [Example 15]  30 µg/mL
4. CC(C#N)(COc1ccc(C#N)cc1F)NC(=O)c1ccc(S(F)(F)(F)(F)F)cc1 (stereo not shown) [Example 29a, N-[1-Cyano-2-(4-cyano-2-fluorophenoxy)-1-methylethyl]-4-(pentafluorothio)benzamide]  10 µg/mL
5. CC(C#N)(COc1cc(Br)ccc1C#N)NC(=O)c1ccc(S(F)(F)(F)(F)F)cc1 (stereo not shown) [Example 16, N-[2-(5-Bromo-2-cyanophenoxy)-1-cyano-1-methylethyl]-4-(pentafluorothio)benzamide]  10 µg/mL
6. CC(C#N)(COc1ccc(C#N)cc1)NC(=O)c1ccc(S(F)(F)(F)(F)F)cc1 (stereo not shown) [Example 22, N-[1-Cyano-2-(4-cyanophenoxy)-1-methylethyl]-4-(pentafluorothio)benzamide]  10 µg/mL
7. CC(C#N)(COc1cccc(Cl)c1)NC(=O)c1ccc(S(F)(F)(F)(F)F)cc1 (stereo not shown) [Example 31]  10 µg/mL
8. CC(C#N)(COc1cccc(Br)c1C#N)NC(=O)c1ccc(S(F)(F)(F)(F)F)cc1 (stereo not shown) [Example 40, N-[2-(3-Bromo-2-cyanophenoxy)-1-cyano-1-methylethyl]-4-(pentafluorothio)benzamide]  10 µg/mL
9. CC(C#N)(COc1cccc(C#N)c1C(F)(F)F)NC(=O)c1ccc(S(F)(F)(F)(F)F)cc1 (stereo not shown) [Example 36, N-{1-Cyano-2-[3-cyano-2-(trifluoromethyl)phenoxy]-1-methylethyl}-4-(pentafluorothio)benzamide]  10 µg/mL
10. CC(C#N)(COc1ccc(F)cc1Br)NC(=O)c1ccc(S(F)(F)(F)(F)F)cc1 (stereo not shown) [Example 33a, N-[2-(2-Bromo-4-fluorophenoxy)-1-cyano-1-methylethyl]-4-(pentafluorothio)benzamide]  10 µg/mL
11. CC(C#N)(COc1cc(C#N)ccc1F)NC(=O)c1ccc(S(F)(F)(F)(F)F)cc1 (stereo not shown) [Example 29b, N-[1-Cyano-2-(5-cyano-2-fluorophenoxy)-1-methylethyl]-4-(pentafluorothio)benzamide]  10 µg/mL
12. CC(C#N)(COc1ccccc1Cl)NC(=O)c1ccc(S(F)(F)(F)(F)F)cc1 (stereo not shown) [Example 25, N-[2-(2-Chlorophenoxy)-1-cyano-1-methylethyl]-4-(pentafluorothio)benzamide]  10 µg/mL
13. CC(C#N)(COc1ccccc1C#N)NC(=O)c1ccc(S(F)(F)(F)(F)F)cc1 (stereo not shown) [Example 19, N-[1-Cyano-2-(2-cyanophenoxy)-1-methylethyl]-4-(pentafluorothio)benzamide]  10 µg/mL
14. CC(C#N)(COc1ccc(C(F)(F)F)cc1F)NC(=O)c1ccc(S(F)(F)(F)(F)F)cc1 (stereo not shown) [Example 30, N-{1-Cyano-2-[2-fluoro-4-(trifluoromethyl)phenoxy]-1-methylethyl}-4-(pentafluorothio)benzamide]  10 µg/mL
15. CC(C#N)(COc1cccc(F)c1C#N)NC(=O)c1ccc(S(F)(F)(F)(F)F)cc1 (stereo not shown) [Example 18, N-[1-Cyano-2-(2-cyano-3-fluorophenoxy)-1-methylethyl]-4-(pentafluorothio)benzamide]  10 µg/mL
16. CC(C#N)(COc1ccc(Cl)cc1C#N)NC(=O)c1ccc(S(F)(F)(F)(F)F)cc1 (stereo not shown) [Example 17, N-[2-(4-Chloro-2-cyanophenoxy)-1-cyano-1-methylethyl]-4-(pentafluorothio)benzamide]  3 µg/mL
17. CC(C#N)(COc1cc(Cl)cc(C#N)c1)NC(=O)c1ccc(S(F)(F)(F)(F)F)cc1 (stereo not shown) [Example 14, N-[2-(3-Chloro-5-cyanophenoxy)-1-cyano-1-methylethyl]-4-(pentafluorothio)benzamide]  3 µg/mL
18. CC(C#N)(COc1ccc(Cl)cc1F)NC(=O)c1ccc(S(F)(F)(F)(F)F)cc1 (stereo not shown) [Example 28, N-[2-(4-Chloro-2-fluorophenoxy)-1-cyano-1-methylethyl]-4-(pentafluorothio)benzamide]  3 µg/mL
19. CC(C#N)(COc1cc(Br)cc(C#N)c1)NC(=O)c1ccc(S(F)(F)(F)(F)F)cc1 (stereo not shown) [Example 35, N-[2-(3-Bromo-5-cyanophenoxy)-1-cyano-1-methylethyl]-4-(pentafluorothio)benzamide]  3 µg/mL

Same assay, conditions: minimum effective dose; table of Examples 45-49

In order of rising “H.c. (L3) MED” value:
1. CC(C#N)(COc1cc(F)cc(C#N)c1)NC(=O)c1ccc(S(F)(F)(F)(F)F)cc1 (stereo not shown) [Example 48, N-[1-Cyano-2-(3-cyano-5-fluorophenoxy)-1-methylethyl]-4-(pentafluorothio)benzamide]  3 µg/mL
2. CC(C#N)(COc1ccc(C#N)cc1C#N)NC(=O)c1ccc(S(F)(F)(F)(F)F)cc1 (stereo not shown) [Example 47, N-[1-Cyano-2-(2,4-dicyanophenoxy)-1-methylethyl]-4-(pentafluorothio)benzamide]  10 µg/mL
3. CC(C#N)(COc1cc(C#N)ccc1C(N)=O)NC(=O)c1ccc(S(F)(F)(F)(F)F)cc1 (stereo not shown) [Example 45, 4-Cyano-2-(2-cyano-2-{[4-(pentafluorothio)benzoyl]amino}propoxy)benzamide]  30 µg/mL

Same assay, conditions: minimum effective dose; unit not given

In order of falling “in vitro H.c. (L3) MED” value:
1. CC(C#N)(COc1cc(C#N)cc(C(F)(F)F)c1Cl)NC(=O)c1ccc(S(F)(F)(F)(F)F)cc1 (racemic) [Example 44, N-{2-[2-Chloro-5-cyano-3-(trifluoromethyl)phenoxy]-1-cyano-1-methylethyl}-4-(pentafluorothio)benzamide]  10
2. CC(C#N)(COc1ccc(Cl)cc1Cl)NC(=O)c1ccc(S(F)(F)(F)(F)F)cc1 (stereo not shown) [Example 12, N-[1-Cyano-2-(2,4-dichlorophenoxy)-1-methylethyl]-4-(pentafluorothio)benzamide]  3
3. CC(C#N)(COc1cccc(C#N)c1)NC(=O)c1ccc(S(F)(F)(F)(F)F)cc1 (racemic) [Example 50, N-[1-Cyano-2-(3-cyanophenoxy)-1-methylethyl]-4-(pentafluorothio)benzamide]  3
